Data: patent US5589474A, “Dibenzothiazepinthione as antiviral agents” (Glaxo Wellcome Inc., priority 1991, dated 1996)

Key:
HIV [1] = test: HIV (in vitro) MT4 assay; format: cell-based; conditions: Human immunodeficiency virus 1
HIV [2] = test: HeLa-CD4 plaque reduction assay (HIV in vitro); format: cell-based; conditions: Human immunodeficiency virus 1

SMILES	IC50 (HIV [1])	IC50 (HIV [2])
Fc1cccc2c1Sc1ccccc1NC2=S [8(iv), 4-Fluoro-10,11-dihydrobenzo[b,f][1,4]thiazepin-11-thione]	3.3 µM	15.4 µM
S=C1Nc2ccccc2Sc2ccccc21 [Example 3, 10,11-Dihydrodibenzo[b,f][1,4]thiazepin-11-thione]	9 µM	5 µM
O=[N+]([O-])c1ccc2c(c1)C(=S)Nc1ccccc1S2 [Example 6, 2-Nitro-10,11-dihydrodibenzo[b,f][1,4]thiazepin-11-thione]	44.4 µM	14.4 µM
